Patent US12391701B2, “Chromene-based compounds, methods and uses thereof” (University of Minho, priority 2019, dated 2025)

Tests used:
[1] = system: rapamycin-resistant A498 cell line; test: Cell viability, rapamycin-resistant A498; assay type: cell-based; settings: for IC50: Homo sapiens, A498
Method: In an embodiment, the antiproliferative activity of compounds MC421, MC409, MC408, MC350, MC416, MC410, MC411, MC415 and MC413 was further determined against drug-resistant renal carcinoma cell lines.
In an embodiment, cell viability assays were performed. MCF-7, Hs578T and MCF-10A cells were plated in triplicate in 96-multiwell culture plates, at 3000 cells per mL, or 5000 cells per mL for MDA-MB-468 (100 μL/well). The cells were then allowed to adhere in complete medium, over a period of 18-20 hours. Cells were subsequently treated with 7 different concentrations (from 0.1 to 40 μM or 5 to 60 μM) of compounds or control in fresh medium. HL-60, KG-1 and Jurkat cell lines were plated in 96-multiwell culture plates at 50.000 cells/100 μL per well and treated with different concentrations (from 0.001 to 2 μM) of the compounds described (or control). Cells were plated, in triplicate, at an initial density of 2000 cells/well for GAMG, 4000 cells/well for GL18 and 6000 cells/well for U87MG, in 96-well plates, and allowed to adhere for 18-20 hours. Cells were then treated with different concentrations of the compounds (0.005 to 100 μM) or with control. A498 and 786-O cells were plated at 2000 cells per mL, Caki-2 cells were plated at 3000 cells per mL and HK2 cells were plated at 2000 cells per mL in triplicate, in 96-multiwell culture plates (100 μL/well), and allowed to adhere over a period of 18-20 hours in complete medium. The cells were then treated with 7 different concentrations (from 0.1 to 40 μM or 5 to 60 μM) of compounds or control in fresh medium. After 72 h of incubation, the MTS (Promega) reduction assay was performed according to manufacturer's instructions to indirectly assess the percentage of viable cells through metabolic cell viability. After 1-2 hours of incubation with MTS in a humidified atmosphere at 37° C. and 5% CO2, absorbance was measured at 490 nm. For RCC cell lines, sulforhodamine B assay was used according to manufacturer's instructions. The data was log-transformed and the concentration of each compound that decreased the number of viable cells to 50% (IC50) relative to control was calculated using the GraphPad Prism 6 software.

Caenorhabditis elegans = test: C. elegans food clearance toxicity assay; assay type: in vivo; settings: several concentrations up to 150 μM (MC369 75 μM)
Method: In an embodiment, toxicity assessment of the compounds in vivo was performed using Caenorhabditis elegans (C. elegans) as a model. A food clearance-based assay was performed, in which the bacteria consumption over time is a proxy for worm development, health and fertility (FIG. 11). […] Worms were cultivated for 7 days in liquid media using heat-inactivated bacteria (E. coli OP50) as a food source and in the presence of several concentrations of compounds MC421, MC406, MC369 and MC408, MC409, MC407. The rate of food consumption between days 3-5 was used as an indication for worm development, health and also fertility, as after day 3 the worms' progeny will contribute to the faster decline in food abundance. An example is shown for hypothetical compound X. DMSO 1% and 5% are used as negative and positive controls for toxicity, respectively. For this experiment, the compounds were solubilized in DMSO 1% (vehicle). In an embodiment, Bristol strain N2 (provided by the CGC, funded by the NIH Office of Research Infrastructure Programs—P40 OD010440) was used to test each compound's toxicity based on a food clearance assay using C. elegans. The assay was performed on 96-well plates in liquid culture (Voisine et al. 2007; Teixeira-Castro et al. 2015). Each well, with a final volume of 60 μL, comprised the following: approximately 20 worms in egg stage, OP50 bacteria to a final OD of 0.6-0.8 (595 nm) and each compound at the appropriate concentration. The worms were grown with continuous shaking at 180 rpm/20° C. (Shel lab Si series incubator) for 7 days and the absorbance (OD595) was measured daily on a microplate reader (Tecan Infinite M200). The effect of the compounds on C. elegans physiology was monitored by the rate at which the E. coli food suspension was consumed (FIG. 14). Age-synchronized worm eggs were obtained by “egg prep” as follows: adult worms were treated with an alkaline hypochlorite solution (20% bleach, 25% 1M NaOH) for 6 minutes, thereafter centrifuged and washed in M9 buffer twice. The egg pellet was then re-suspended in S-medium to obtain the appropriate egg concentration before being transferred to 96-well plates. The OP50 bacteria was prepared by inactivating an overnight culture (37° C., 180 rpm, Luria Broth media) with 4 freeze-thaw cycles. Before use, the OP50 was re-suspended in supplemented S-medium (cholesterol, streptomycin, penicillin and nystatin). The compounds were prepared in 100% DMSO (Sigma) and diluted up to a test concentration of 1% DMSO to prevent solvent toxicity. For each compound, several concentrations (150-10 μM) were tested, with the exception of MC369 (75-10 μM) due to solubility issues. For each compound, several concentrations were used and the corresponding OD595 consumption rate (slope) for days 3-5 was calculated. The compounds were tested in worms grown in 96 well plates (PlateLayout.xls, Supporting Information), in two independent experiments. For the statistical analysis, the data from both experiments were pooled together and IBM SPSS was used to apply an ANOVA (Brown-Forsythe robust test of equality of means) followed by the Games-Howell post hoc test to compare the different concentrations used for each compound and 5% DMSO (wt/v) to the control (1% DMSO(wt/v)).

Compound | Selectivity Index (vs HK2) A498 Resistant [1] | IC50 [1] [µM] | rate of food consumption between days 3-5 vs 1% DMSO (Caenorhabditis elegans)
COc1cccc2c1Oc1nc(-c3ccccc3)[nH]c1C2 [MC350, 5-methoxy-2-phenyl-3,9-dihydrochromeno[2,3-d]imidazoles] | 12.27 | 1.62 | 
COc1cccc2c1Oc1nc(-c3ccccc3F)[nH]c1C2C1c2cccc(OC)c2Oc2nc(-c3ccccc3F)[nH]c21 (stereo not drawn) [MC369, 2,2′-bis(2-fluorophenyl)-5,5′-dimethoxy-1,1,9,9′-tetrahydro-9,9′-bichromeno[2,3-]imidazoles] |  |  | No statistical differences
COc1cccc2c1Oc1nc(-c3ccc(F)cc3)[nH]c1C2C1c2cccc(OC)c2Oc2nc(-c3ccc(F)cc3)[nH]c21 (stereo not drawn) [MC406, 2,2′-bis(4-fluorophenyl)-5,5′-dimethoxy-1,1,9,9′-tetrahydro-9,9′-bichromeno[2,3-]imidazoles] |  |  | No statistical differences
COc1cccc2c1Oc1nc(-c3ccccc3F)[nH]c1C2 [MC407, 2-(2-fluorophenyl)-5-methoxy-3,9-dihydrochromeno[2,3-d]imidazoles] |  |  | No statistical differences
COc1cccc2c1Oc1nc(-c3ccc(Br)cc3)[nH]c1C2 [MC408, 2-(4-bromophenyl)-5-methoxy-3,9-dihydrochromeno[2,3-d]imidazoles] | 2.26 | 1.07 | No statistical differences
COc1cccc2c1Oc1nc(-c3ccc(F)cc3)[nH]c1C2 [MC409, 2-(4-fluorophenyl)-5-methoxy-3,9-dihydrochromeno[2,3-d]imidazoles] | 5.84 | 0.51 | No statistical differences
COc1cccc2c1Oc1nc(-c3ccc(O)cc3)[nH]c1C2 [MC413, 4-(5-methoxy-3,9-dihydrochromeno[2,3-d]imidazol-2-yl)phenol] | 12.32 | 0.77 | 
CCOc1ccc(-c2nc3c([nH]2)Cc2cccc(OC)c2O3)cc1 [MC415, 2-(4-ethoxyphenyl)-5-methoxy-3,9-dihydrochromeno[2,3-d]imidazoles] | 8.03 | 0.58 | 
COc1cccc2c1Oc1nc(-c3ccc(Br)cc3)[nH]c1C2C1c2cccc(OC)c2Oc2nc(-c3ccc(Br)cc3)[nH]c21 (stereo not drawn) [MC421, 2,2′-bis(4-bromophenyl)-5,5′-dimethoxy-1,1,9,9′-tetrahydro-9,9′-bichromeno[2,3-]imidazoles] | 14.56 | 0.16 | No statistical differences
